pKd: −log10 of the molar value.
Biological target: Alpha-synuclein (Homo sapiens, UniProt P37840)

pKd: 8.42
Structure (SMILES): OCCOC(=C\C=C1N(c2ccccc2)c2cc3ccccc3cc2N1c1ccccc1)/C=C/c1n(-c2ccccc2)c2cc3ccccc3cc2[n+]1-c1ccccc1
